Data set [1] relates to HT-29. As to the kind of experiment: Cytotoxicity against human HT-29 cells at 10 uM after 48 hrs. It counts as functional.
Data set [2] deals with CCRF-CEM. As to the kind of experiment: Cytotoxicity against human CEM cells at 10 uM after 48 hrs. Type of data set: functional.
For data set [3], the system named is MCF7. The data set is described as follows: Cytotoxicity against human MCF7 cells at 10 uM after 48 hrs. Type of data set: functional.
Data set [4] deals with NCI-H460. The data set is described as follows: Cytotoxicity against human NCI-H460 cells at 10 uM after 48 hrs. It counts as functional.
A short description of data set [5]: Cytotoxicity against human fibroblast cells at 10 uM after 48 hrs. Type of data set: cell-based.
The test system of data set [6] is CCRF-CEM. As to the kind of experiment: Cytotoxicity against human CEM cells after 48 hrs. It counts as functional, cell-based.
In data set [7] the test system is NCI-H460. The data set is described as follows: Cytotoxicity against human NCI-H460 cells after 48 hrs. It counts as functional, cell-based. The settings on record: NCI-H460, 48 h.
The subject of data set [8] is MCF7. The data set is described as follows: Cytotoxicity against human MCF7 cells after 48 hrs. It counts as functional, cell-based. The settings on record: MCF7, 48 h.
The test system of data set [9] is HT-29. The data set is described as follows: Cytotoxicity against human HT-29 cells after 48 hrs. Type of data set: functional, cell-based. The settings on record: HT-29, 48 h.

Molecules are shown by their SMILES.

On to `C[C@@H]1CC[C@]2(C(=O)O)CC[C@]3(C)C(=CC[C@@H]4[C@@]5(C)C[C@H](O)[C@H](O)C(C)(C)[C@@H]5CC[C@]43C)[C@@H]2[C@]1(C)O`, for which the Activity came to 74% in the data set on HT-29 [1]; 73% in the data set on CCRF-CEM [2]; 70% in the data set with MCF7 [3]; 78% in the data set on NCI-H460 [4]; 107% in data set [5].
On to `C[C@@H]1CC[C@]2(C(=O)O)CC[C@]3(C)C(=CC[C@@H]4[C@@]5(C)CC[C@H](O)[C@@](C)(C=O)[C@@H]5CC[C@]43C)[C@@H]2[C@]1(C)O`, for which the Activity with HT-29 [1] amounted to 91%; with CCRF-CEM [2], 88%; with MCF7 [3] it was 93%; in the data set on NCI-H460 [4], 103%; in data set [5] it was 99%.
The IC50 is the midpoint of a concentration-inhibition curve. High values mean weaker potency, low ones greater potency. As for `C[C@H]1[C@H](C)CC[C@]2(C(=O)O)CC[C@]3(C)C(=CC[C@@H]4[C@@]5(C)C[C@@H](O)[C@H](O)C(C)(C)[C@@H]5CC[C@]43C)[C@H]12` [COROSOLIC ACID], the IC50 with CCRF-CEM [6] is 3.27 µM; in the data set with NCI-H460 [7], over 10 µM; with MCF7 [8], over 10 µM; with HT-29 [9], over 10 µM. Besides, the Activity in the data set with HT-29 [1] is 68%; in the data set with CCRF-CEM [2], 33%; with MCF7 [3] it was 75%; in the data set with NCI-H460 [4], 89%; in data set [5], 109%.
Turning to `COc1cccc2c1C(=O)c1c(O)c3c(c(O)c1C2=O)C[C@@](O)(C(=O)CO)C[C@@H]3O[C@H]1C[C@H](N)[C@H](O)[C@H](C)O1` [DOXORUBICIN], the IC50 in the data set on CCRF-CEM [6] was found to be 3.14 µM; in the data set with NCI-H460 [7] it was 6.06 µM; with HT-29 [9], 6.4 µM.
In the case of `C[C@@H]1CC[C@]2(C(=O)O)CC[C@]34C[C@]3(C=C[C@@H]3[C@@]5(C)CC[C@H](O)C(C)(C)[C@@H]5CC[C@]34C)[C@@H]2[C@]1(C)O` [EUSCAPHIC ACID A], the Activity in the data set on HT-29 [1] is 87%; with CCRF-CEM [2], 83%; with MCF7 [3] it was 85%; with NCI-H460 [4], 62%; in [5], 100%.
The matching figures for `C[C@@H]1CC[C@]2(C(=O)O)CC[C@]34C[C@]3(C=C[C@@H]3[C@@]5(C)CC[C@H](O)[C@@](C)(CO)[C@@H]5CC[C@]34C)[C@@H]2[C@]1(C)O` [EUSCAPHIC ACID B]: 93%, 80%, 84%, 99% and 109%.
Take `C[C@@H]1CC[C@]2(C(=O)O)CC[C@]34C[C@]3(C=C[C@@H]3[C@@]5(C)C[C@@H](O)[C@@H](O)C(C)(C)[C@@H]5CC[C@]34C)[C@@H]2[C@]1(C)O` [EUSCAPHIC ACID C]: the half-maximal inhibitory concentration (IC50) came to 65.3 µM with CCRF-CEM [6], 2.54 µM with NCI-H460 [7], 15.7 µM with MCF7 [8] and 14.3 µM in the data set with HT-29 [9]. Also, the Activity in the data set with HT-29 [1] was determined as 1%; in the data set on CCRF-CEM [2], 19%; with MCF7 [3], 10%; with NCI-H460 [4], 6%; in data set [5], 119%.
As for `C[C@@H]1CC[C@]2(C(=O)O)CC[C@]34C[C@]3(C=C[C@@H]3[C@@]5(C)C[C@@H](O)[C@H](O)C(C)(C)[C@@H]5CC[C@]34C)[C@@H]2[C@]1(C)O` [EUSCAPHIC ACID D], the 50% inhibitory concentration (IC50) in the data set on CCRF-CEM [6] was found to be 8.99 µM; in the data set with NCI-H460 [7], 13.3 µM; with MCF7 [8], 3.61 µM; in the data set with HT-29 [9], 34.8 µM. Also, the Activity in the data set on HT-29 [1] is 13%; with CCRF-CEM [2] it was 55%; in the data set with MCF7 [3], 41%; in the data set with NCI-H460 [4], 24%; in data set [5] it was 111%.
In the case of `C[C@H]1[C@H](C)CC[C@]2(C(=O)O)CC[C@]34C[C@]3(C=C[C@@H]3[C@@]5(C)C[C@@H](O)[C@H](O)C(C)(C)[C@@H]5CC[C@]34C)[C@H]12` [EUSCAPHIC ACID E], the Activity was found to be 86% in the data set with HT-29 [1]; 87% with CCRF-CEM [2]; 90% in the data set with MCF7 [3]; 91% in the data set on NCI-H460 [4]; 110% in data set [5].
The matching figures for `C=C1[C@H](C)CC[C@]2(C(=O)O)CC[C@]34C[C@]3(C=C[C@@H]3[C@@]5(C)C[C@@H](O)[C@H](O)C(C)(C)[C@@H]5CC[C@]34C)[C@H]12` [EUSCAPHIC ACID F]: 87%, 86%, 76%, 81% and 115%.
As for `C[C@@H]1CC[C@]2(C(=O)O)CC[C@]3(C)C(=CC[C@@H]4[C@@]5(C)C[C@@H](O)[C@@H](O)C(C)(C)[C@@H]5CC[C@]43C)[C@@H]2[C@]1(C)O` [EUSCAPHIC ACID], the Activity is recorded as 85% with HT-29 [1]; 89% in the data set with CCRF-CEM [2]; 85% in the data set with MCF7 [3]; 104% in the data set on NCI-H460 [4]; 95% in [5].
In the case of `C[C@@H]1CC[C@]2(C(=O)O)CC[C@]3(C)C(=CC[C@@H]4[C@@]5(C)CC[C@H](O)C(C)(C)[C@@H]5CC[C@]43C)[C@@H]2[C@]1(C)O` [POMOLIC ACID], the Activity in the data set with HT-29 [1] was 91%; in the data set on CCRF-CEM [2], 92%; in the data set with MCF7 [3], 79%; in the data set with NCI-H460 [4], 82%; in [5], 93%.
The matching figures for `C[C@@H]1CC[C@]2(C(=O)O)CC[C@]3(C)C(=CC[C@@H]4[C@@]5(C)CC[C@H](O)[C@@](C)(CO)[C@@H]5CC[C@]43C)[C@@H]2[C@]1(C)O` [ROTUNDIC ACID]: 101%, 106%, 78%, 85% and 92%.
For `C[C@@H]1CC[C@]2(C(=O)O)CC[C@]3(C)C(=CC[C@@H]4[C@@]5(C)CC[C@H](O)[C@](C)(CO)[C@@H]5CC[C@]43C)[C@@H]2[C@]1(C)O` [ROTUNGENIC ACID], the Activity is reported as 91% in the data set on HT-29 [1]; 97% in the data set with CCRF-CEM [2]; 98% with MCF7 [3]; 106% with NCI-H460 [4]; 99% in data set [5].
The matching figures for `C[C@@H]1CC[C@]2(C(=O)O)CC[C@]3(C)C(=CC[C@@H]4[C@@]5(C)C[C@@H](O)[C@H](O)C(C)(C)[C@@H]5CC[C@]43C)[C@@H]2[C@]1(C)O` [TOMENTIC ACID]: 86%, 93%, 85%, 88% and 114%.

The record behind these values is ChEMBL document CHEMBL1268858, “Cytotoxic Hexacyclic Triterpene Acids from Euscaphis japonica” (J Nat Prod, 2010).
